Laboratory results as given in paper PMC8344761 (Journal of Enzyme Inhibition and Medicinal Chemistry, 2021).

Tests used:
C-Raf = C-Raf (Homo sapiens, UniProt P04049); test: Raf kinase assay (Kinase HotSpot, Reaction Biology Corp.); format: biochemical; conditions: fixed concentration 1 μM; mean of two independent experiments; read-out: Inhibition (%) C-Raf
Procedure: (§1) Compounds were delivered into each Raf reaction, followed ∼20 min later by addition of a mixture of ATP and [γ-^33P-ATP] (specific activity approx. 500 cpm/pmol, concentration as required) to a final concentration of 10 µM. After incubation for 40 min at 25 °C, the reaction was stopped by the addition of a 3% phosphoric acid solution. Then, the reaction was spotted onto a P30 filtermat, and unbound phosphate was removed by washing three times for 5 min in 75 mM phosphoric acid and once in methanol prior to drying and scintillation counting. […] IC50 values and curve fits were obtained using Prism (GraphPad Software, La Jolla, CA).

B-Raf (V600E) = B-Raf (V600E) (Homo sapiens, UniProt P15056, V600E); test: as above; format: biochemical; conditions: fixed concentration 1 μM; mean of two independent experiments; B-Raf (V599E)
B-Raf (V600E), sequence (P15056 whole entry V600E): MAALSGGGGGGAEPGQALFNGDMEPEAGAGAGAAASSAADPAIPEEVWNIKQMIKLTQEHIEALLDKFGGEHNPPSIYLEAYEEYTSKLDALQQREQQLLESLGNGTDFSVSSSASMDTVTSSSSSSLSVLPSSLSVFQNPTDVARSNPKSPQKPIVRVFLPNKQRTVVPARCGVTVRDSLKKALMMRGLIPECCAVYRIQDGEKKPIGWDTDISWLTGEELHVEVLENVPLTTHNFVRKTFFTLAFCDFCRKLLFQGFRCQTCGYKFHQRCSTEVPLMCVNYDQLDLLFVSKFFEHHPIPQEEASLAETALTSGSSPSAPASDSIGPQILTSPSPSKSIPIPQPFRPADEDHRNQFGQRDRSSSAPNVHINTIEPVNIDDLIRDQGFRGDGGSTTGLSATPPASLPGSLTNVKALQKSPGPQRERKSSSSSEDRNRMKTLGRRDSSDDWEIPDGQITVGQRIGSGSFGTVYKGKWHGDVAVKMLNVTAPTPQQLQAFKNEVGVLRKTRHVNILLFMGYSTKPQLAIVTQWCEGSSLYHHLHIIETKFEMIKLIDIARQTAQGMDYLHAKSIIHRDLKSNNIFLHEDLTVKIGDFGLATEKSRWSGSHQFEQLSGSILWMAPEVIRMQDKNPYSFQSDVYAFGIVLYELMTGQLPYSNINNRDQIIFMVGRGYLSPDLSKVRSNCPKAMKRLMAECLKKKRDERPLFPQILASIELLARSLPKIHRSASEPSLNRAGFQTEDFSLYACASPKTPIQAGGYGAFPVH
Procedure: as §1

B-Raf = B-Raf (Homo sapiens, UniProt P15056); test: as above; format: biochemical; conditions: fixed concentration 1 μM; mean of two independent experiments
B-Raf, sequence (P15056 whole entry): as the sequence (P15056 whole entry V600E) above, with E600V counted along it
Procedure: as §1

A-Raf = target: T1, A-Raf (Homo sapiens, UniProt P10398); test: as above; format: biochemical; conditions: fixed concentration 1 μM; mean of two independent experiments
T1 sequence (P10398 1-606): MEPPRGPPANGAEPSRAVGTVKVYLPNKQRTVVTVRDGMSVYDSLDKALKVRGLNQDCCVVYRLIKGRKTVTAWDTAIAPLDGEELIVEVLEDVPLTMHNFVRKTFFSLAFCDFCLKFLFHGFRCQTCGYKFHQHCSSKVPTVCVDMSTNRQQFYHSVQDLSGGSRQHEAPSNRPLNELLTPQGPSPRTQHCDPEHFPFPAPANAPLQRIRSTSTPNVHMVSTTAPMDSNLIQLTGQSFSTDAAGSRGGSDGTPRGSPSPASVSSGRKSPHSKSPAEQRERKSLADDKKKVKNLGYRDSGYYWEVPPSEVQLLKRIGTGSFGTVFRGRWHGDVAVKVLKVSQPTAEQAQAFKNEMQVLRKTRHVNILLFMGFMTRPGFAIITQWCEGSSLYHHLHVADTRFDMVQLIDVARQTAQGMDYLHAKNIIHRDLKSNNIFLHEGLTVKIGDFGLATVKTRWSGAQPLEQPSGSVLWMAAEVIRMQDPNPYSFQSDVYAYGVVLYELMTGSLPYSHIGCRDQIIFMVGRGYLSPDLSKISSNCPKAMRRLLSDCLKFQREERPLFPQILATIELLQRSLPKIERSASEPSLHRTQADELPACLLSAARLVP
Procedure: as §1, with “After incubation for 40 min at 25 °C, the reaction was stopped by the addition of a 3% phosphoric acid solution.” left out

C-Raf, sequence (P04049 whole entry): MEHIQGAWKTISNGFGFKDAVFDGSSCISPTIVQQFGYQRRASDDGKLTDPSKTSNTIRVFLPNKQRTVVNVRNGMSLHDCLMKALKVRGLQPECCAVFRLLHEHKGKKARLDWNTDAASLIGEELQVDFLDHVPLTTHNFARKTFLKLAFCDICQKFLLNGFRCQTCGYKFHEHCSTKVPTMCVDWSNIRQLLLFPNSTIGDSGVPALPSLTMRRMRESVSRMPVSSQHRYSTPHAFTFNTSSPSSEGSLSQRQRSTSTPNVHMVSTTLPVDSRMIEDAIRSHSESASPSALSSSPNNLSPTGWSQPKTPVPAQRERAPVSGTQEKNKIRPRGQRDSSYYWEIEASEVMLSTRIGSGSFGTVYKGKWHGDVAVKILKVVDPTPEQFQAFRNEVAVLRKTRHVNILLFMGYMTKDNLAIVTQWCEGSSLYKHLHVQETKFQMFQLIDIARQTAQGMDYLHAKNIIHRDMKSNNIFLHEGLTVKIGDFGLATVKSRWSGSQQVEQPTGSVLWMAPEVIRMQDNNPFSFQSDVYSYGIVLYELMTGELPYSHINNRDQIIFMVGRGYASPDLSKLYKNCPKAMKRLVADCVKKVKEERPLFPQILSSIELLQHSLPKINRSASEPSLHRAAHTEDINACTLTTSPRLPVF

Structure (SMILES) | melting point [°C] | inhibition at 1 µM (C-Raf) [%] | inhibition at 1 µM (B-Raf (V600E)) [%] | inhibition at 1 µM (B-Raf) [%] | inhibition at 1 µM (A-Raf) [%]
CNC(=O)c1cc(Oc2c(C)nc(NC(=O)Nc3ccc(C)cc3)c(C)c2C)ccn1 [Compound 14, N-Methyl-4-((2,4,5-trimethyl-6-(3-(p-tolyl)ureido)pyridin-3-yl)oxy)picolinamide] | 247 | 73.6 | 62.2 | 44.5 | 51
Cc1nc(NC(=O)Nc2ccc(Cl)c(C(F)(F)F)c2)c(C)c(C)c1OCc1ccccc1 [Compound 24, 1-(5-(Benzyloxy)-3,4,6-trimethylpyridin-2-yl)-3-(4-chloro-3-(trifluoromethyl)phenyl)urea] | 206 | -8.3 | 4.4 | -19.3 | 11.9
CNC(=O)c1cc(Oc2c(C)nc(NC(=O)Nc3ccc(N)cc3)c(C)c2C)ccn1 [Compound 23, 4-((6-(3-(4-Aminophenyl)ureido)-2,4,5-trimethylpyridin-3-yl)oxy)-N-methylpicolinamide] | 205 | 6.7 | 11.6 | 0.3 | 11
CNC(=O)c1cc(Oc2c(C)nc(NC(=O)Nc3ccc(OC(F)(F)F)cc3)c(C)c2C)ccn1 [Compound 12, N-Methyl-4-((2,4,5-trimethyl-6-(3-(4-(trifluoromethoxy)phenyl)ureido)pyridin-3-yl)oxy)picolinamide] | 185 | 37.5 | 22.2 | 6.6 | 12.4
CNC(=O)c1cc(Oc2c(C)nc(NC(=O)Nc3ccc(F)cc3)c(C)c2C)ccn1 [Compound 8, 4-((6-(3-(4-Fluorophenyl)ureido)-2,4,5-trimethylpyridin-3-yl)oxy)-N-methylpicolinamide] | 253 | 78.2 | 77.9 | 61.5 | 78.4
CNC(=O)c1cc(Oc2c(C)nc(NC(=O)Nc3ccc(OC)cc3)c(C)c2C)ccn1 [Compound 13, 4-((6-(3-(4-Methoxyphenyl)ureido)-2,4,5-trimethylpyridin-3-yl)oxy)-N-methylpicolinamide] | 258 | 55.9 | 33.4 | 5.1 | 14.7
CNC(=O)c1cc(Oc2c(C)nc(N)c(C)c2C)ccn1 [Compound 3, 4-((6-Amino-2,4,5-trimethylpyridin-3-yl)oxy)-N-methylpicolinamide] | 193 | 0 | 9.4 | -15.4 | 17.6
CNC(=O)c1cc(Oc2c(C)nc(NC(=O)Nc3ccccc3)c(C)c2C)ccn1 [Compound 7, N-Methyl-4-((2,4,5-trimethyl-6-(3-phenylureido)pyridin-3-yl)oxy)picolinamide] | 229 | 46.4 | 48 | 24.8 | 49.3
CNC(=O)c1cc(Oc2c(C)nc(NC(=O)Nc3ccc(Br)cc3)c(C)c2C)ccn1 [Compound 9, 4-((6–(3-(4-Bromophenyl)ureido)-2,4,5-trimethylpyridin-3-yl)oxy)-N-methylpicolinamide] | 268 | 74.6 | 58.9 | 40.8 | 49.9
CNC(=O)c1cc(Oc2c(C)nc(NC(=O)Nc3ccc(Cl)c(C(F)(F)F)c3)nc2C)ccn1 [Compound 28, 4-((2-(3-(4-Chloro-3-(trifluoromethyl)phenyl)ureido)-4,6-dimethylpyrimidin-5-yl)oxy)-N-methylpicolinamide] | 251 | 91 | 75.2 | 48.5 | 72.4
CNC(=O)c1cc(Oc2c(C)nc(NC(=O)Nc3ccc(C(F)(F)F)cc3)c(C)c2C)ccn1 [Compound 11, N-Methyl-4-((2,4,5-trimethyl-6-(3-(4-(trifluoromethyl)phenyl)ureido)pyridin-3-yl)oxy)picolinamide] | 254 | 90.4 | 71.9 | 66.8 | 66.3
CNC(=O)c1cc(Oc2c(C)nc(NC(=O)NC3CC3)c(C)c2C)ccn1 [Compound 20, 4-((6-(3-Cyclopropylureido)-2,4,5-trimethylpyridin-3-yl)oxy)-N-methylpicolinamide] | 192 | -0.8 | 8.9 | -10 | 16.4
